Experimental data: the supplement of paper PMC10331698
± gives the standard deviation of the averaged measurements.

Assays:
Assay in all cases: level (log10 ratio to DMSO vehicle control); higher = higher biomarker level / cell amount than vehicle control
[1] = compound: OCCCC(F)(F)C(F)(F)C(F)(F)C(F)(F)C(F)(F)C(F)(F)C(F)(F)F [7:3 Fluorotelomer alcohol]; conditions: 6700 nM; in DMSO
Protocol: (§1)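 BioMAP Diversity Plus panel of 12 human primary cell co-culture systems (3C, 4H, LPS, SAg, BT, BF4T, BE3C, CASM3C, HDF3CGF, KF3CT, MyoF, Mphg). Compounds were added 1 h before stimulation and left for 24 h (MyoF 48 h; BT 72 h for soluble read-outs or 6 d for IgG). Biomarkers were read by ELISA, cytotoxicity by SRB, PBMC viability and proliferation by Alamar Blue. Each well value was divided by the mean of 8 DMSO control wells on the same plate and log10 transformed; duplicate blinded samples were tested at 4 concentrations.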

[2] = compound: OCCC(F)(F)C(F)(F)C(F)(F)C(F)(F)C(F)(F)C(F)(F)F [6:2 Fluorotelomer alcohol]; conditions: in DMSO
Protocol: as §1

[3] = compound: NCC(F)(F)C(F)(F)C(F)(F)C(F)(F)C(F)(F)C(F)(F)C(F)(F)F [1H,1H-Perfluorooctylamine]; conditions: in DMSO
Protocol: as §1

[4] = compound: O=C(O)C(F)(F)OC(F)(F)C(F)(F)OC(F)(F)F [Perfluoro-3,6-dioxaheptanoic acid]; conditions: in DMSO
Protocol: as §1

Perfluorobutanoic acid = compound: O=C(O)C(F)(F)C(F)(F)C(F)(F)F [Perfluorobutanoic acid]; conditions: in DMSO
Protocol: as §1

[5] = compound: CCN(CCO)S(=O)(=O)C(F)(F)C(F)(F)C(F)(F)C(F)(F)C(F)(F)C(F)(F)C(F)(F)C(F)(F)F [N-Ethyl-N-(2-hydroxyethyl)perfluorooctanesulfonamide]; conditions: in DMSO
Protocol: as §1

[6] = compound: FC(F)(F)C(F)(C(F)(F)F)C(F)(F)C(F)(F)CC1CO1 [3-(Perfluoro-3-methylbutyl)-1,2-propenoxide]; conditions: in DMSO
Protocol: as §1

[7] = compound: FC(F)(F)C(F)(F)C(F)(F)C(F)(F)C(F)(F)CCI [1-Iodo-1H,1H,2H,2H-perfluoroheptane]; conditions: in DMSO
Protocol: as §1

Row | Test System | level (log10) [1] | level (log10) ([2]; 6700 nM) | level (log10) ([2]; 20000 nM) | level (log10) ([3]; 6700 nM) | level (log10) ([3]; 20000 nM) | level (log10) ([3]; 60000 nM) | level (log10) ([4]; 6700 nM) | level (log10) ([4]; 20000 nM) | level (log10) ([4]; 60000 nM) | level (log10) (Perfluorobutanoic acid; 6700 nM) | level (log10) (Perfluorobutanoic acid; 20000 nM) | level (log10) (Perfluorobutanoic acid; 60000 nM) | level (log10) ([5]; 6700 nM) | level (log10) ([5]; 20000 nM) | level (log10) ([6]; 6700 nM) | level (log10) ([6]; 20000 nM) | level (log10) ([7]; 6700 nM) | level (log10) ([7]; 20000 nM) | level (log10) ([7]; 60000 nM)
1 | 3C:CCL2/MCP-1 | 0.0045 ± 0.011 | 0.008 ± 0.014 | -0.008 ± 0.0071 | -0.003 ± 0.0099 | 0.0095 ± 0.021 | 0.0275 ± 0.028 | -0.023 ± 0.044 | -0.015 ± 0.013 | -0.023 ± 0.021 | 0.007 ± 0.0071 | 0.0075 ± 0.011 | 0.028 ± 0.025 | -0.032 ± 0.016 | -0.145 ± 0.032 | -0.0115 ± 0.0064 | -0.0125 ± 0.025 | -0.0135 ± 0.0021 | -0.009 ± 0.0099 | 0.0045 ± 0.025
2 | 3C:CD54/ICAM-1 | 0.013 | -0.006 ± 0.013 | -0.0185 ± 0.044 | -0.0105 ± 0.028 | -0.0125 ± 0.039 | -0.015 ± 0.025 | -0.0325 ± 0.0064 | -0.0165 ± 0.019 | 0.0035 ± 0.005 | -0.0185 ± 0.019 | -0.029 ± 0.017 | -0.03 ± 0.024 | 0.03 ± 0.013 | 0.075 ± 0.065 | -0.0055 ± 0.00071 | -0.0025 ± 0.0064 | 0.0055 ± 0.021 | 0.0015 ± 0.0092 | 0.0085 ± 0.005
3 | 3C:CD62E/E-Selectin | 0.002 ± 0.014 | -0.0075 ± 0.043 | -0.024 ± 0.042 | -0.0045 ± 0.047 | 0.022 ± 0.02 | 0.0335 ± 0.011 | -0.0045 ± 0.016 | -0.02 ± 0.017 | 0.01 ± 0.0071 | -0.0155 ± 0.011 | 0.0075 ± 0.012 | -0.0185 ± 0.0035 | 0.0685 ± 0.012 | 0.068 ± 0.0057 | -0.0215 ± 0.0078 | -0.0115 ± 0.013 | -0.005 ± 0.0071 | 0.004 ± 0.011 | 0.008 ± 0.018
4 | 3C:CD106/VCAM-1 | 0.005 ± 0.0057 | 0.0025 ± 0.0092 | -0.0075 ± 0.0021 | -0.0035 ± 0.00071 | -0.016 ± 0.0057 | -0.005 ± 0.0099 | -0.0185 ± 0.019 | -0.008 ± 0.0071 | -0.001 ± 0.018 | -0.002 ± 0.0028 | -0.009 ± 0.0071 | -0.0225 ± 0.011 | 0.0005 ± 0.005 | 0.005 ± 0.0085 | -0.0275 ± 0.019 | -0.0005 ± 0.013 | -0.01 ± 0.0028 | -0.02 ± 0.0042 | -0.0205 ± 0.022
5 | 3C:CD141/Thrombomodulin | -0.032 | -0.019 ± 0.037 | -0.0445 ± 0.021 | -0.036 ± 0.033 | -0.0295 ± 0.033 | -0.0385 ± 0.039 | -0.037 ± 0.04 | -0.0105 ± 0.044 | -0.0255 ± 0.077 | -0.0095 ± 0.026 | -0.0105 ± 0.026 | -0.0105 ± 0.04 | 0.046 ± 0.03 | 0.261 ± 0.14 | -0.001 ± 0.017 | -0.0245 ± 0.018 | -0.0385 ± 0.025 | -0.047 ± 0.031 | -0.031 ± 0.0057
6 | 3C:CD142/Tissue Factor | -0.007 ± 0.0057 | -0.003 ± 0.044 | -0.014 ± 0.025 | -0.0275 ± 0.00071 | -0.0105 ± 0.00071 | -0.0255 ± 0.011 | -0.0295 ± 0.047 | -0.025 ± 0.04 | -0.053 ± 0.0014 | 0.011 ± 0.0042 | 0.0085 ± 0.021 | 0.0035 ± 0.043 | 0.0825 ± 0.036 | 0.235 ± 0.059 | -0.0095 ± 0.044 | -0.0125 ± 0.047 | 0.003 ± 0.016 | 0.0155 ± 0.00071 | 0.0295 ± 0.00071
7 | BE3C:Keratin 8/18 | 0.0155 ± 0.032 | -0.0095 ± 0.0064 | -0.0115 ± 0.00071 | -0.009 ± 0.0071 | -0.024 ± 0.0099 | -0.0005 ± 0.0078 | -0.033 ± 0.041 | -0.0085 ± 0.022 | -0.03 ± 0.017 | -0.005 ± 0.017 | 0.003 ± 0.0071 | -0.0195 ± 0.016 | 0 ± 0.014 | -0.007 ± 0.014 | 0.0005 ± 0.03 | 0.001 ± 0.03 | -0.019 ± 0.02 | -0.009 ± 0.034 | -0.02 ± 0.0071
